Measured values: ChEMBL document CHEMBL1201862, “PubChem BioAssay data set” (2004)
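All cell lines were grown in 96-well plates and treated with compound for 48 hours. GI50 marks 50% less growth.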 Calls of active or inactive are those of the source. Cut-off read from the data, not from the text of the source: active = GI50 up to about 1.1 µM and inactive = higher.

Experiments:
Assay in all cases: NCI anticancer screen, dose series, 48 h
[1] = tested on: MDA-MB-435
[2] = tested on: DU-145
[3] = tested on: HOP-92
[4] = tested on: M14
[5] = tested on: TK-10
[6] = tested on: MDA-MB-231
[7] = tested on: SN12C
[8] = tested on: K562
[9] = tested on: PC-3
[10] = tested on: SK-MEL-5
[11] = tested on: HCT-116
[12] = tested on: SW-620
[13] = tested on: OVCAR-8
[14] = tested on: COLO 205
[15] = tested on: 786-0
[16] = tested on: NCI-H522
[17] = tested on: BT-549
[18] = tested on: MCF7
[19] = tested on: OVCAR-3
[20] = tested on: SF-295
[21] = tested on: RPMI-8226
[22] = tested on: LOX IMVI
[23] = tested on: SK-MEL-28
[24] = tested on: HL-60
[25] = tested on: SF-268
[26] = tested on: NCI-H23
[27] = tested on: MOLT-4
[28] = tested on: OVCAR-4
[29] = tested on: UACC-257
[30] = tested on: ACHN
[31] = tested on: NCI/ADR-RES
[32] = tested on: Hs-578T
[33] = tested on: HT-29
[34] = tested on: UO-31
[35] = tested on: EKVX
[36] = tested on: KM12
[37] = tested on: UACC-62
[38] = tested on: CCRF-CEM
[39] = tested on: A549
[40] = tested on: NCI-H226
[41] = tested on: HOP-62
[42] = tested on: RXF 393
[43] = tested on: SNB-75
[44] = tested on: MDA-N
[45] = tested on: SK-OV-3
[46] = tested on: IGROV-1
[47] = tested on: T47D
[48] = tested on: A498
[49] = tested on: SNB-19
[50] = tested on: SF-539
[51] = tested on: HCT-15
[52] = tested on: SR
[53] = tested on: HCC 2998
[54] = tested on: OVCAR-5
[55] = tested on: U-251
[56] = tested on: Malme-3M
[57] = tested on: SK-MEL-2
[58] = tested on: NCI-H460
[59] = tested on: CAKI-1

O=[N+]([O-])c1ccc2nc(O)n[n+]([O-])c2c1
GI50 [1]: > 100 µM (inactive)
GI50 [2]: > 100 µM (inactive)
GI50 [3]: > 100 µM (inactive)
GI50 [4]: > 100 µM (inactive)
GI50 [5]: > 100 µM (inactive)
GI50 [6]: > 100 µM (inactive)
GI50 [7]: > 100 µM (inactive)
GI50 [8]: > 100 µM (inactive)
GI50 [9]: > 100 µM (inactive)
GI50 [10]: > 100 µM (inactive)
GI50 [11]: > 100 µM (inactive)
GI50 [12]: > 100 µM (inactive)
GI50 [13]: > 100 µM (inactive)
GI50 [14]: > 100 µM (inactive)
GI50 [15]: > 100 µM (inactive)
GI50 [16]: > 100 µM (inactive)
GI50 [17]: > 100 µM (inactive)
GI50 [18]: > 100 µM (inactive)
GI50 [19]: > 100 µM (inactive)
GI50 [20]: > 100 µM (inactive)
GI50 [21]: 97.9 µM (inactive)
GI50 [22]: > 100 µM (inactive)
GI50 [23]: > 100 µM (inactive)
GI50 [24]: > 100 µM (inactive)
GI50 [25]: > 100 µM (inactive)
GI50 [26]: > 100 µM (inactive)
GI50 [27]: > 100 µM (inactive)
GI50 [28]: > 100 µM (inactive)
GI50 [29]: > 100 µM (inactive)
GI50 [30]: > 100 µM (inactive)
GI50 [31]: > 100 µM (inactive)
GI50 [32]: > 100 µM (inactive)
GI50 [33]: > 100 µM (inactive)
GI50 [34]: > 100 µM (inactive)
GI50 [35]: > 100 µM (inactive)
GI50 [36]: > 100 µM (inactive)
GI50 [37]: > 100 µM (inactive)
GI50 [38]: > 100 µM (inactive)
GI50 [39]: > 100 µM (inactive)
GI50 [40]: > 100 µM (inactive)
GI50 [41]: > 100 µM (inactive)
GI50 [42]: > 100 µM (inactive)
GI50 [43]: > 100 µM (inactive)
GI50 [44]: > 100 µM (inactive)
GI50 [45]: > 100 µM (inactive)
GI50 [46]: > 100 µM (inactive)
GI50 [47]: > 100 µM (inactive)
GI50 [48]: > 100 µM (inactive)
GI50 [49]: > 100 µM (inactive)
GI50 [50]: > 100 µM (inactive)
GI50 [51]: > 100 µM
GI50 [52]: > 20.6 µM (inactive)
GI50 [53]: > 100 µM (inactive)
GI50 [54]: > 100 µM (inactive)
GI50 [55]: > 100 µM (inactive)
GI50 [56]: > 100 µM (inactive)
GI50 [57]: > 100 µM (inactive)
GI50 [58]: > 100 µM (inactive)

CCOC(=O)C#Cc1ccc([N+](=O)[O-])cc1
GI50 [1]: 3.44 µM (inactive)
GI50 [2]: 1.74 µM (inactive)
GI50 [3]: 1.8 µM (inactive)
GI50 [4]: 2.15 µM (inactive)
GI50 [5]: 14.3 µM (inactive)
GI50 [6]: 2.28 µM (inactive)
GI50 [7]: 1.69 µM (inactive)
GI50 [8]: 2.07 µM (inactive)
GI50 [9]: 2.72 µM (inactive)
GI50 [10]: 2.67 µM (inactive)
GI50 [11]: 1.66 µM (inactive)
GI50 [12]: 2.28 µM (inactive)
GI50 [13]: 2.37 µM (inactive)
GI50 [14]: 1.72 µM (inactive)
GI50 [15]: 1.55 µM (inactive)
GI50 [16]: 1.49 µM (inactive)
GI50 [17]: 2.18 µM (inactive)
GI50 [18]: 1.24 µM (inactive)
GI50 [19]: 1.71 µM (inactive)
GI50 [20]: 12.9 µM (inactive)
GI50 [21]: 1.98 µM (inactive)
GI50 [22]: 1.34 µM (inactive)
GI50 [23]: 5.52 µM (inactive)
GI50 [24]: 1.73 µM (inactive)
GI50 [25]: 2.52 µM (inactive)
GI50 [26]: 2.59 µM (inactive)
GI50 [27]: 1.73 µM (inactive)
GI50 [28]: 11.2 µM (inactive)
GI50 [29]: 3.32 µM (inactive)
GI50 [30]: 3.21 µM (inactive)
GI50 [31]: 4.18 µM (inactive)
GI50 [32]: 4.18 µM (inactive)
GI50 [33]: 1.53 µM (inactive)
GI50 [34]: 1.77 µM (inactive)
GI50 [35]: 3.15 µM (inactive)
GI50 [36]: 1.82 µM (inactive)
GI50 [37]: 1.98 µM (inactive)
GI50 [38]: 1.1 µM (active)
GI50 [39]: 10.4 µM (inactive)
GI50 [40]: 2.68 µM (inactive)
GI50 [41]: 3.24 µM (inactive)
GI50 [42]: 1.28 µM (inactive)
GI50 [43]: 2.24 µM (inactive)
GI50 [59]: 1.87 µM (inactive)
GI50 [44]: 3.19 µM (inactive)
GI50 [45]: 12.7 µM (inactive)
GI50 [46]: 1.96 µM (inactive)
GI50 [47]: 2.01 µM (inactive)
GI50 [48]: 17.5 µM (inactive)
GI50 [49]: 13 µM (inactive)
GI50 [50]: 2.06 µM (inactive)
GI50 [51]: 1.82 µM
GI50 [52]: 1.77 µM (inactive)
GI50 [53]: 14.8 µM (inactive)
GI50 [54]: 1 µM (active)
GI50 [55]: 1.64 µM (inactive)
GI50 [57]: 3.24 µM (inactive)
GI50 [58]: 12.4 µM (inactive)

Cc1cccc(/N=N/c2c(C)nn(C(=O)CC(=O)Nc3ccc(Cl)cc3)c2C)c1
GI50 [1]: > 100 µM (inactive)
GI50 [2]: > 100 µM (inactive)
GI50 [3]: 21 µM (inactive)
GI50 [4]: 48.3 µM (inactive)
GI50 [5]: > 100 µM (inactive)
GI50 [6]: 20.7 µM (inactive)
GI50 [7]: > 100 µM (inactive)
GI50 [9]: 69 µM (inactive)
GI50 [10]: > 100 µM (inactive)
GI50 [11]: 67.1 µM (inactive)
GI50 [12]: > 100 µM (inactive)
GI50 [13]: > 100 µM (inactive)
GI50 [14]: > 100 µM (inactive)
GI50 [15]: 82 µM (inactive)
GI50 [16]: 53.3 µM (inactive)
GI50 [17]: > 100 µM (inactive)
GI50 [18]: > 100 µM (inactive)
GI50 [19]: 82.4 µM (inactive)
GI50 [20]: > 100 µM (inactive)
GI50 [21]: > 100 µM (inactive)
GI50 [22]: 95.5 µM (inactive)
GI50 [23]: > 100 µM (inactive)
GI50 [24]: 36 µM (inactive)
GI50 [25]: 55.2 µM (inactive)
GI50 [26]: > 100 µM (inactive)
GI50 [27]: 36.6 µM (inactive)
GI50 [28]: > 100 µM (inactive)
GI50 [29]: > 100 µM (inactive)
GI50 [30]: 60.5 µM (inactive)
GI50 [31]: > 100 µM (inactive)
GI50 [32]: 23.8 µM (inactive)
GI50 [33]: > 100 µM (inactive)
GI50 [34]: > 100 µM (inactive)
GI50 [35]: 13.4 µM (inactive)
GI50 [36]: > 100 µM (inactive)
GI50 [37]: > 100 µM (inactive)
GI50 [38]: 32.4 µM (inactive)
GI50 [39]: > 100 µM (inactive)
GI50 [40]: 20 µM (inactive)
GI50 [41]: 37.1 µM (inactive)
GI50 [42]: 48.1 µM (inactive)
GI50 [43]: 9.51 µM (inactive)
GI50 [59]: > 100 µM (inactive)
GI50 [44]: 83.8 µM (inactive)
GI50 [45]: 65.6 µM (inactive)
GI50 [47]: 64.3 µM (inactive)
GI50 [48]: 43.8 µM (inactive)
GI50 [49]: 80.5 µM (inactive)
GI50 [50]: > 100 µM (inactive)
GI50 [51]: 47.8 µM
GI50 [52]: 20.8 µM (inactive)
GI50 [53]: > 100 µM (inactive)
GI50 [54]: 45.6 µM (inactive)
GI50 [55]: 61.5 µM (inactive)
GI50 [57]: 67.5 µM (inactive)
GI50 [58]: 85.3 µM (inactive)
